pIC50: −log10 of the molar value.
Key:
MCF7 [1] = assay: Cytotoxicity against human MCF7 cells after 36 hrs by MTT assay; assay type: functional, cell-based; settings: MCF7, 36 h
A549 = assay: Cytotoxicity against human A549 cells after 36 hrs by MTT assay; assay type: functional, cell-based; settings: A549, 36 h
HeLa = assay: Cytotoxicity against human HeLa cells after 36 hrs by MTT assay; assay type: functional, cell-based
[2] = Cytotoxicity against HEK293T cells after 36 hrs by MTT assay; assay type: cell-based; settings: Homo sapiens, HEK-293T
MCF7 [3] = assay: Cell cycle arrest in human MCF7 cells assessed as accumulation at G0/G1 phase at 8 uM after 24 hrs by propidium iodide staining-based flow cytometry (reference value: 64.68 to 80.32%); assay type: functional
MCF7 [4] = assay: Cell cycle arrest in human MCF7 cells assessed as accumulation at S phase at 2 uM after 24 hrs by propidium iodide staining-based flow cytometry (reference value: 15.95 to 25.74%); assay type: functional
MCF7 [5] = assay: Cell cycle arrest in human MCF7 cells assessed as accumulation at S phase at 4 uM after 24 hrs by propidium iodide staining-based flow cytometry (reference value: 15.95 to 25.74%); assay type: functional
MCF7 [6] = assay: Cell cycle arrest in human MCF7 cells assessed as accumulation at S phase at 8 uM after 24 hrs by propidium iodide staining-based flow cytometry (reference value: 15.95 to 25.74%); assay type: functional
MCF7 [7] = assay: Cell cycle arrest in human MCF7 cells assessed as accumulation at G2/M phase at 2 uM after 24 hrs by propidium iodide staining-based flow cytometry (reference value: 3.73 to 10.75%); assay type: functional
MCF7 [8] = assay: Cell cycle arrest in human MCF7 cells assessed as accumulation at G2/M phase at 4 uM after 24 hrs by propidium iodide staining-based flow cytometry (reference value: 3.73 to 10.75%); assay type: functional
MCF7 [9] = assay: Cell cycle arrest in human MCF7 cells assessed as accumulation at G2/M phase at 8 uM after 24 hrs by propidium iodide staining-based flow cytometry (reference value: 3.73 to 10.75%); assay type: functional
MCF7 [10] = assay: Induction of apoptosis in human MCF7 cells assessed as necrotic cells at 1 uM after 24 hrs by Annexin V-FITC/propidium iodide staining-based flow cytometry (reference value: 0.021 to 3.8%); assay type: functional
MCF7 [11] = assay: Induction of apoptosis in human MCF7 cells assessed as necrotic cells at 2 uM after 24 hrs by Annexin V-FITC/propidium iodide staining-based flow cytometry (reference value: 0.021 to 3.8%); assay type: functional
MCF7 [12] = assay: Induction of apoptosis in human MCF7 cells assessed as necrotic cells at 4 uM after 24 hrs by Annexin V-FITC/propidium iodide staining-based flow cytometry (reference value: 0.021 to 3.8%); assay type: functional
MCF7 [13] = assay: Induction of apoptosis in human MCF7 cells assessed as necrotic cells at 8 uM after 24 hrs by Annexin V-FITC/propidium iodide staining-based flow cytometry (reference value: 0.021 to 3.8%); assay type: functional
MCF7 [14] = assay: Induction of apoptosis in human MCF7 cells assessed as late apoptotic cells at 1 uM after 24 hrs by Annexin V-FITC/propidium iodide staining-based flow cytometry (reference value: 5.92 to 9.33%); assay type: functional
MCF7 [15] = assay: Cell cycle arrest in human MCF7 cells assessed as accumulation at G0/G1 phase at 2 uM after 24 hrs by propidium iodide staining-based flow cytometry (reference value: 64.68 to 80.32%); assay type: functional
MCF7 [16] = assay: Cell cycle arrest in human MCF7 cells assessed as accumulation at G0/G1 phase at 4 uM after 24 hrs by propidium iodide staining-based flow cytometry (reference value: 64.68 to 80.32%); assay type: functional
MCF7 [17] = assay: Induction of apoptosis in human MCF7 cells assessed as late apoptotic cells at 2 uM after 24 hrs by Annexin V-FITC/propidium iodide staining-based flow cytometry (reference value: 5.92 to 9.33%); assay type: functional
MCF7 [18] = assay: Induction of apoptosis in human MCF7 cells assessed as late apoptotic cells at 4 uM after 24 hrs by Annexin V-FITC/propidium iodide staining-based flow cytometry (reference value: 5.92 to 9.33%); assay type: functional
MCF7 [19] = assay: Induction of apoptosis in human MCF7 cells assessed as late apoptotic cells at 8 uM after 24 hrs by Annexin V-FITC/propidium iodide staining-based flow cytometry (reference value: 5.92 to 9.33%); assay type: functional
MCF7 [20] = assay: Induction of apoptosis in human MCF7 cells assessed as early apoptotic cells at 1 uM after 24 hrs by Annexin V-FITC/propidium iodide staining-based flow cytometry (reference value: 2.45 to 6.92%); assay type: functional
MCF7 [21] = assay: Induction of apoptosis in human MCF7 cells assessed as early apoptotic cells at 2 uM after 24 hrs by Annexin V-FITC/propidium iodide staining-based flow cytometry (reference value: 2.45 to 6.92%); assay type: functional
MCF7 [22] = assay: Induction of apoptosis in human MCF7 cells assessed as early apoptotic cells at 4 uM after 24 hrs by Annexin V-FITC/propidium iodide staining-based flow cytometry (reference value: 2.45 to 6.92%); assay type: functional
MCF7 [23] = assay: Induction of apoptosis in human MCF7 cells assessed as early apoptotic cells at 8 uM after 24 hrs by Annexin V-FITC/propidium iodide staining-based flow cytometry (reference value: 2.45 to 6.92%); assay type: functional
MCF7 [24] = assay: Induction of apoptosis in human MCF7 cells assessed as viable cells at 1 uM after 24 hrs by Annexin V-FITC/propidium iodide staining-based flow cytometry (reference value: 80 to 91.6%); assay type: functional; settings: MCF7, 24 h, read-out: Activity
MCF7 [25] = assay: Induction of apoptosis in human MCF7 cells assessed as viable cells at 2 uM after 24 hrs by Annexin V-FITC/propidium iodide staining-based flow cytometry (reference value: 80 to 91.6%); assay type: functional; settings: MCF7, 24 h, read-out: Activity
MCF7 [26] = assay: Induction of apoptosis in human MCF7 cells assessed as viable cells at 4 uM after 24 hrs by Annexin V-FITC/propidium iodide staining-based flow cytometry (reference value: 80 to 91.6%); assay type: functional; settings: MCF7, 24 h, read-out: Activity
MCF7 [27] = assay: Induction of apoptosis in human MCF7 cells assessed as viable cells at 8 uM after 24 hrs by Annexin V-FITC/propidium iodide staining-based flow cytometry (reference value: 80 to 91.6%); assay type: functional; settings: MCF7, 24 h, read-out: Activity

Structure (SMILES): COc1cc(C2c3cc4c(cc3[C@H](OC(=O)[C@H](Cc3ccccc3)N3C(=O)c5ccccc5C3=O)[C@H]3COC(=O)[C@H]23)OCO4)cc(OC)c1OC (stereo not given in full)
- pIC50 (MCF7 [1]): 5.00
- pIC50 (A549): 5.09
- pIC50 (HeLa): 4.90
- pIC50 [2]: 4.26

Structure (SMILES): COc1cc(C2c3cc4c(cc3[C@H](OC(=O)[C@@H](C)N3C(=O)C5CCCCC5C3=O)[C@H]3COC(=O)[C@H]23)OCO4)cc(OC)c1OC (stereo not given in full)
- pIC50 (MCF7 [1]): 5.60
- pIC50 (A549): 5.68
- pIC50 (HeLa): 5.67
- pIC50 [2]: 4.26

Structure (SMILES): COc1cc(C2c3cc4c(cc3[C@H](OC(=O)[C@H](C)N3C(=O)c5ccccc5C3=O)[C@H]3COC(=O)[C@H]23)OCO4)cc(OC)c1OC (stereo not given in full)
- pIC50 (MCF7 [1]): 4.74
- pIC50 (A549): 5.23
- pIC50 (HeLa): 4.72
- pIC50 [2]: 4.05

Structure (SMILES): COc1cc(C2c3cc4c(cc3[C@H](OC(=O)C(Cc3ccccc3)N3C(=O)C5CCCCC5C3=O)[C@H]3COC(=O)[C@H]23)OCO4)cc(OC)c1OC (stereo not given in full)
- pIC50 (MCF7 [1]): 5.93
- pIC50 (A549): 5.76
- pIC50 (HeLa): 5.65
- pIC50 [2]: 4.21

Structure (SMILES): COc1cc(C2c3cc4c(cc3[C@H](OC(=O)[C@@H](Cc3ccccc3)N3C(=O)C5CCCCC5C3=O)[C@H]3COC(=O)[C@H]23)OCO4)cc(OC)c1OC (stereo not given in full)
- pIC50 (MCF7 [1]): 5.43
- pIC50 (A549): 5.41
- pIC50 (HeLa): 5.41
- pIC50 [2]: 4.20

Structure (SMILES): COc1cc(C2c3cc4c(cc3[C@H](OC(=O)[C@H](Cc3ccccc3)N3C(=O)C5CCCCC5C3=O)[C@H]3COC(=O)[C@H]23)OCO4)cc(OC)c1OC (stereo not given in full)
- pIC50 (MCF7 [1]): 5.08
- pIC50 (A549): 5.31
- pIC50 (HeLa): 5.08
- pIC50 [2]: 4.37

Structure (SMILES): O=C1OC(=O)C2C3CCC(O3)C12 (stereo not given)
- Activity (MCF7 [3]): 31.77%
- Activity (MCF7 [4]): 42.95%
- Activity (MCF7 [5]): 47.21%
- Activity (MCF7 [6]): 45.68%
- Activity (MCF7 [7]): 15.64%
- Activity (MCF7 [8]): 16.7%
- Activity (MCF7 [9]): 22.55%
- pIC50 (MCF7 [1]): 4.92
- pIC50 (A549): 4.80
- pIC50 (HeLa): 5.04
- pIC50 [2]: 5.01
- Activity (MCF7 [10]): 5.89%
- Activity (MCF7 [11]): 4.21%
- Activity (MCF7 [12]): 11.6%
- Activity (MCF7 [13]): 14.2%
- Activity (MCF7 [14]): 14.5%
- Activity (MCF7 [15]): 41.61%
- Activity (MCF7 [16]): 36.09%
- Activity (MCF7 [17]): 20.8%
- Activity (MCF7 [18]): 22%
- Activity (MCF7 [19]): 41.3%
- Activity (MCF7 [20]): 5.68%
- Activity (MCF7 [21]): 6.04%
- Activity (MCF7 [22]): 8.3%
- Activity (MCF7 [23]): 11%
- viability at 1 µM (MCF7 [24]): 74%
- viability at 2 µM (MCF7 [25]): 69%
- viability at 4 µM (MCF7 [26]): 58.1%
- viability at 8 µM (MCF7 [27]): 33.5%

Structure (SMILES): COc1cc([C@@H]2c3cc4c(cc3[C@H](O)[C@H]3COC(=O)[C@H]23)OCO4)cc(OC)c1OC [PODOFILOX]
- Activity (MCF7 [3]): 27.1%
- Activity (MCF7 [4]): 53.55%
- Activity (MCF7 [5]): 19.36%
- Activity (MCF7 [6]): 57.7%
- Activity (MCF7 [7]): 11.97%
- Activity (MCF7 [8]): 12.77%
- Activity (MCF7 [9]): 15.2%
- pIC50 (MCF7 [1]): 5.95
- pIC50 (A549): 5.87
- pIC50 (HeLa): 5.84
- pIC50 [2]: 5.81
- Activity (MCF7 [10]): 0.037%
- Activity (MCF7 [11]): 0.021%
- Activity (MCF7 [12]): 0.032%
- Activity (MCF7 [13]): 0.042%
- Activity (MCF7 [14]): 4.34%
- Activity (MCF7 [15]): 34.48%
- Activity (MCF7 [16]): 67.87%
- Activity (MCF7 [17]): 6.26%
- Activity (MCF7 [18]): 3.57%
- Activity (MCF7 [19]): 4.97%
- Activity (MCF7 [20]): 2.33%
- Activity (MCF7 [21]): 2.95%
- Activity (MCF7 [22]): 3.35%
- Activity (MCF7 [23]): 3.24%
- viability at 1 µM (MCF7 [24]): 93.3%
- viability at 2 µM (MCF7 [25]): 90.8%
- viability at 4 µM (MCF7 [26]): 93.1%
- viability at 8 µM (MCF7 [27]): 91.8%

Structure (SMILES): COc1cc(C2c3cc4c(cc3[C@H](OC(=O)[C@@H](Cc3ccccc3)N3C(=O)C5C6CCC(O6)C5C3=O)[C@H]3COC(=O)[C@H]23)OCO4)cc(OC)c1OC (stereo not given in full)
- pIC50 (MCF7 [1]): 5.56
- pIC50 (A549): 5.36
- pIC50 (HeLa): 5.51
- pIC50 [2]: 4.17

Structure (SMILES): COc1cc([C@@H]2c3cc4c(cc3[C@@H](O[C@@H]3O[C@@H]5CO[C@@H](C)O[C@H]5[C@H](O)[C@H]3O)[C@H]3COC(=O)[C@H]23)OCO4)cc(OC)c1O [ETOPOSIDE]
- pIC50 (MCF7 [1]): 5.76
- pIC50 (A549): 5.10
- pIC50 (HeLa): 5.36
- pIC50 [2]: 4.94

— ChEMBL document CHEMBL3813683, “Design, synthesis and anti-cancer activity evaluation of podophyllotoxin-norcantharidin hybrid drugs” (Bioorg Med Chem Lett, 2016)
